Data as given in ChEMBL document CHEMBL1909046, “DrugMatrix in vitro pharmacology data”.
pIC50, pKi: −log10 of the molar value.

What was measured:
[1] = molecular target: 5-hydroxytryptamine receptor 6 (Homo sapiens, UniProt P50406); assay type: cell membranes, HeLa, Membrane; settings: for pIC50: read-out: IC50; for pKi: read-out: Ki; on all read-outs here: in other assays of this panel Not Active means under 50% inhibition at 10 µM
[2] = molecular target: T1, Muscarinic acetylcholine receptor M2 (Homo sapiens, UniProt P08172); assay type: cell membranes, CHO-K1, Membrane; settings: cho-k1; further: in other assays of this panel Not Active means under 50% inhibition at 10 µM
T1 sequence (P08172 whole entry): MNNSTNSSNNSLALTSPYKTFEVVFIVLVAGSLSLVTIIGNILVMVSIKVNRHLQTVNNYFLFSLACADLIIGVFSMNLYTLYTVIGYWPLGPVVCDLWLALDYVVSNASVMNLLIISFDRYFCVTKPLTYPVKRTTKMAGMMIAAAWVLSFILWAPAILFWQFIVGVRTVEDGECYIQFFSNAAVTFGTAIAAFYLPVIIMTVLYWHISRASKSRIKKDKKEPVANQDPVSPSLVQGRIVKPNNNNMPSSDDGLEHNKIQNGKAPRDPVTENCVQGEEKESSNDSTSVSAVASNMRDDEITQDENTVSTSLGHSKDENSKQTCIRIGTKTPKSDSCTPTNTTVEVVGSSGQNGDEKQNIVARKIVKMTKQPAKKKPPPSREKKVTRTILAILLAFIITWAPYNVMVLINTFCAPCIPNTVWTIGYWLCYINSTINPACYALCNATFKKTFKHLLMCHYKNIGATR

[3] = molecular target: Sigma non-opioid intracellular receptor 1 (Homo sapiens, UniProt Q99720); assay: DRUGMATRIX: Sigma1 radioligand binding (ligand: [3H] Haloperidol); assay type: cell membranes, Jurkat, Membrane; settings: Not Active = under 50% inhibition at 10 µM; for pIC50: read-out: IC50; for pKi: read-out: Ki
Calcitonin receptor = molecular target: T2, Calcitonin receptor (Homo sapiens, UniProt P30988); assay type: cell membranes, Membrane; settings: t47d; further: in other assays of this panel Not Active means under 50% inhibition at 10 µM
T2 sequence (P30988 whole entry): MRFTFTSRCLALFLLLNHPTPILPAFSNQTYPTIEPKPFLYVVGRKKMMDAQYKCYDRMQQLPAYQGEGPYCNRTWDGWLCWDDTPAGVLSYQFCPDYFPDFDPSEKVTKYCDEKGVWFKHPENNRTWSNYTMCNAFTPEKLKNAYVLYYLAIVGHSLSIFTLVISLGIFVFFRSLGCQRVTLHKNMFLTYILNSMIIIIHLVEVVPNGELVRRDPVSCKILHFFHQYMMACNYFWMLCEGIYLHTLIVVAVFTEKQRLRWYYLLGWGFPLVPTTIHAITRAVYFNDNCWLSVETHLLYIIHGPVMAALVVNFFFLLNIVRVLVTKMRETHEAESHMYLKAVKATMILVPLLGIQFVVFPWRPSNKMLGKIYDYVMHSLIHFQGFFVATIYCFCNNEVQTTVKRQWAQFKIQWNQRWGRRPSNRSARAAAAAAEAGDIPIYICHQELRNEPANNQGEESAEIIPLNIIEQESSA

[4] = DRUGMATRIX: Calcium Channel Type L, Phenylalkylamine radioligand binding (ligand: [3H] (-)-Desmethoxyverapamil (D-888)); assay type: cell membranes, Rattus norvegicus, Wistar, Brain, Membrane; settings: Not Active = under 50% inhibition at 10 µM; for pIC50: read-out: IC50; for pKi: read-out: Ki

5-hydroxytryptamine receptor 6, sequence (P50406 whole entry): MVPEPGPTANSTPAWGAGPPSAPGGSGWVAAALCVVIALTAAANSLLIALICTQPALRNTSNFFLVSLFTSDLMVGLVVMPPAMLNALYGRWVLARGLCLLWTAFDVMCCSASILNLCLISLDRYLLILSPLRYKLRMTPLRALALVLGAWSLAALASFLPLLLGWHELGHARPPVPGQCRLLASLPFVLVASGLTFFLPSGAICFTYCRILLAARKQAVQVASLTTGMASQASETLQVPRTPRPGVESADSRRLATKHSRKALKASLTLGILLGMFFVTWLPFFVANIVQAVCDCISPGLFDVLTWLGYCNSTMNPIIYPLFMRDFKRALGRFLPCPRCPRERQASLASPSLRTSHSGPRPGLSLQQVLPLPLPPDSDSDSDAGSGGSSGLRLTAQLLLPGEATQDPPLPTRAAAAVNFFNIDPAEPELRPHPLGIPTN
Sigma non-opioid intracellular receptor 1, sequence (Q99720 whole entry): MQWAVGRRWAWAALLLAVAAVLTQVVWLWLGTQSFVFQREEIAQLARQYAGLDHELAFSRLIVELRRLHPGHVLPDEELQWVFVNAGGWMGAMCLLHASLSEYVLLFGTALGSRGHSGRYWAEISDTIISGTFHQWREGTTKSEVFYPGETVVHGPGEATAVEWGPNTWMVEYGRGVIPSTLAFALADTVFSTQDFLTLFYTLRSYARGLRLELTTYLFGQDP

| Molecule | IC50 ([1]; hela) | IC50 [2] | pIC50 [3] | pKi [3] | IC50 (Calcitonin receptor) | IC50 [4] | Ki [4] | IC50 ([3]; jurkat) | pIC50 [1] | pKi [1] | Ki ([1]; hela) | Ki [2] | Ki ([3]; jurkat) | Ki (Calcitonin receptor) | pIC50 [4] | pKi [4] |
| --- | --- | --- | --- | --- | --- | --- | --- | --- | --- | --- | --- | --- | --- | --- | --- | --- |
| CCOc1cc(N)c(Cl)cc1C(=O)NCC1CN(Cc2ccc(F)cc2)CCO1 (stereo not drawn) [MOSAPRIDE] | Not Active | Not Active | 6.51 | 6.89 | Not Active | Not Active | Not Active |  |  |  |  |  |  |  |  |  |
| O=C(c1ccccc1)c1ccc2n1CCC2C(=O)O (stereo not drawn) [KETOROLAC] | Not Active | Not Active |  |  | Not Active | Not Active | Not Active | Not Active |  |  |  |  |  |  |  |  |
| Nc1nc(N)c2nc(-c3ccccc3)c(N)nc2n1 | Not Active | Not Active |  |  | Not Active | Not Active | Not Active | Not Active |  |  |  |  |  |  |  |  |
| Oc1ccc(/C=C/c2cc(O)cc(O)c2)cc1 [RESVERATROL] | Not Active | Not Active |  |  | Not Active | Not Active | Not Active | Not Active |  |  |  |  |  |  |  |  |
| Cc1ccnc(NS(=O)(=O)c2ccc(N)cc2)n1 [SULFAMERAZINE] | Not Active | Not Active |  |  | Not Active | Not Active | Not Active | Not Active |  |  |  |  |  |  |  |  |
| CCN1CCCC1CNC(=O)c1cc(S(N)(=O)=O)ccc1OC (stereo not drawn) [SULPIRIDE] | Not Active | Not Active |  |  | Not Active | Not Active | Not Active | Not Active |  |  |  |  |  |  |  |  |
| O=C1CC[C@@]2(O)[C@H]3Cc4ccc(O)c5c4[C@@]2(CCN3CC2CC2)[C@H]1O5 [NALTREXONE] | Not Active | Not Active |  |  | Not Active | Not Active | Not Active | Not Active |  |  |  |  |  |  |  |  |
| CCN(CC)C(=S)SSC(=S)N(CC)CC |  | Not Active |  |  | Not Active | Not Active | Not Active | Not Active | 4.80 | 5.13 |  |  |  |  |  |  |
| O=C(OC[C@H]1O[C@@H](OC(=O)c2cc(O)c(O)c(OC(=O)c3cc(O)c(O)c(O)c3)c2)[C@H](OC(=O)c2cc(O)c(O)c(OC(=O)c3cc(O)c(O)c(O)c3)c2)[C@@H](OC(=O)c2cc(O)c(O)c(OC(=O)c3cc(O)c(O)c(O)c3)c2)[C@@H]1OC(=O)c1cc(O)c(O)c(OC(=O)c2cc(O)c(O)c(O)c2)c1)c1cc(O)c(O)c(OC(=O)c2cc(O)c(O)c(O)c2)c1 [TANNIC ACID] | Not Active | Not Active |  |  | Not Active | Not Active | Not Active | Not Active |  |  |  |  |  |  |  |  |
| C=CCc1ccc2c(c1)OCO2 [SAFROLE] | Not Active | Not Active |  |  | Not Active | Not Active | Not Active | Not Active |  |  |  |  |  |  |  |  |
| C#C[C@]1(O)CC[C@H]2[C@@H]3[C@H](C)CC4=C(CCC(=O)C4)[C@H]3CC[C@@]21C [TIBOLONE] | Not Active | Not Active |  |  | Not Active | Not Active | Not Active | Not Active |  |  |  |  |  |  |  |  |
| CC[C@@]1(O)C(=O)OCc2c1cc1n(c2=O)Cc2cc3c(CN(C)C)c(O)ccc3nc2-1 [TOPOTECAN] | Not Active | Not Active |  |  | Not Active | Not Active | Not Active | Not Active |  |  |  |  |  |  |  |  |
| CC1(C)[C@H](C(=O)O)N2C(=O)C[C@H]2S1(=O)=O [SULBACTAM] | Not Active | Not Active |  |  | Not Active | Not Active | Not Active | Not Active |  |  |  |  |  |  |  |  |
| CCN(CC)N=O [N-NITROSODIETHYLAMINE] | Not Active | Not Active |  |  | Not Active | Not Active | Not Active | Not Active |  |  |  |  |  |  |  |  |
| C[C@]12CCC(=O)C[C@@H]1CC[C@@H]1[C@@H]2CC[C@]2(C)[C@@H](O)CC[C@@H]12 [STANOLONE] | Not Active | Not Active |  |  | Not Active | Not Active | Not Active | Not Active |  |  |  |  |  |  |  |  |
| Cc1cccc(C)c1NC(=O)C(C)N (stereo not drawn) [TOCAINIDE] | Not Active | Not Active |  |  | Not Active | Not Active | Not Active | Not Active |  |  |  |  |  |  |  |  |
| LEAD(IV) ACETATE | Not Active | Not Active |  |  | Not Active | Not Active | Not Active | Not Active |  |  | Not Active | Not Active | Not Active | Not Active |  |  |

| Molecule | IC50 ([1]; hela) | IC50 [2] | pIC50 [3] | pKi [3] | IC50 (Calcitonin receptor) | IC50 [4] | Ki [4] | IC50 ([3]; jurkat) | pIC50 [1] | pKi [1] | Ki ([1]; hela) | Ki [2] | Ki ([3]; jurkat) | Ki (Calcitonin receptor) | pIC50 [4] | pKi [4] |
| --- | --- | --- | --- | --- | --- | --- | --- | --- | --- | --- | --- | --- | --- | --- | --- | --- |
| CC#C[C@]1(O)CC[C@H]2[C@@H]3CCC4=CC(=O)CCC4=C3[C@@H](c3ccc(N(C)C)cc3)C[C@@]21C [MIFEPRISTONE] | Not Active | Not Active | 4.58 | 4.96 | Not Active |  |  |  |  |  |  |  |  |  | 4.80 | 4.81 |
| CS(=O)(=O)c1ccc(C2=C(c3ccccc3)C(=O)OC2)cc1 [ROFECOXIB] | Not Active | Not Active |  |  | Not Active | Not Active | Not Active | Not Active |  |  |  |  |  |  |  |  |
| COC(=O)Nc1nc2ccc(C(=O)c3ccccc3)cc2[nH]1 [MEBENDAZOLE] | Not Active | Not Active |  |  | Not Active | Not Active | Not Active | Not Active |  |  |  |  |  |  |  |  |
| CC(O)C(=O)O (stereo not drawn) [LACTIC ACID] | Not Active | Not Active |  |  | Not Active | Not Active | Not Active | Not Active |  |  |  |  |  |  |  |  |
| CC(N)C12CC3CC(CC(C3)C1)C2 (stereo not drawn) [RIMANTADINE] | Not Active | Not Active |  |  | Not Active | Not Active | Not Active | Not Active |  |  |  |  |  |  |  |  |
| CN1C[C@H](CNC(=O)OCc2ccccc2)C[C@@H]2c3cccc4c3c(cn4C)C[C@H]21 [METERGOLINE] |  | Not Active |  |  | Not Active |  |  | Not Active | 7.55 | 7.89 |  |  |  |  | 6.56 | 6.57 |
| CO[C@@H]1[C@@H](OC)[C@H](C)[C@@](O)(CC(=O)O)O[C@H]1[C@H](C)[C@H]1O[C@@]2(CC[C@@](C)([C@H]3CC[C@@](C)([C@@H]4O[C@@H]([C@H]5O[C@](C)(O)[C@H](C)C[C@@H]5C)C[C@@H]4O[C@@H]4C[C@H](OC)[C@@H](OC)[C@H](C)O4)O3)O2)C[C@H](O)[C@H]1C.N [MADURAMICIN] | Not Active | Not Active |  |  | Not Active | Not Active | Not Active | Not Active |  |  |  |  |  |  |  |  |
| CCOC(=O)C1=C(C)NC(C)=C(C(=O)OCC)C1c1ccccc1/C=C/C(=O)OC(C)(C)C [LACIDIPINE] | Not Active | Not Active |  |  | Not Active | Not Active | Not Active | Not Active |  |  |  |  |  |  |  |  |
| CC(C)(C)NC[C@H](O)COc1cccc2c1CCCC2=O [LEVOBUNOLOL] | Not Active | Not Active | 6.11 | 6.49 | Not Active | Not Active | Not Active |  |  |  |  |  |  |  |  |  |
| Cc1[nH]c(=O)c(C#N)cc1-c1ccncc1 [MILRINONE] | Not Active | Not Active |  |  | Not Active | Not Active | Not Active | Not Active |  |  |  |  |  |  |  |  |
| C1CCN2C[C@@H]3C[C@@H](CN4CCCC[C@@H]34)[C@H]2C1 [SPARTEINE] | Not Active | Not Active |  |  | Not Active | Not Active | Not Active | Not Active |  |  |  |  |  |  |  |  |
| Cc1cnc(NC(=O)C2=C(O)c3ccccc3S(=O)(=O)N2C)s1 [MELOXICAM] | Not Active | Not Active |  |  | Not Active | Not Active | Not Active | Not Active |  |  |  |  |  |  |  |  |
| Cc1cc2c(s1)Nc1ccccc1N=C2N1CCN(C)CC1 [OLANZAPINE] |  | Not Active |  |  | Not Active |  |  | Not Active |  |  |  |  |  |  |  |  |
| C[N+]1(C)[C@@H]2C[C@@H](OC(=O)[C@H](CO)c3ccccc3)C[C@H]1[C@@H]1O[C@@H]12.[Br-] [METHSCOPOLAMINE BROMIDE] | Not Active |  |  |  | Not Active | Not Active | Not Active | Not Active |  |  |  |  |  |  |  |  |
| CNCCCC12CCC(c3ccccc31)c1ccccc12 [MAPROTILINE] |  |  |  |  | Not Active |  |  | Not Active | 6.05 | 6.38 |  |  |  |  |  |  |
| CN(C)CCC=C1c2ccccc2COc2ccccc21 [DOXEPIN] |  |  | 6.20 | 6.58 | Not Active |  |  |  |  |  |  |  |  |  |  |  |
